Assay results reported in US20100261719A1, “CHEMICAL COMPOUNDS” (priority 2007, published 2010).
pIC50: −log10 of the molar value.

The compounds below were run against Escherichia coli DNA gyrase A/B tetramer (Escherichia coli, UniProt P0AES4+P0AES6) (assay: DNA gyrase supercoiling activity fluorescence polarisation assay). Conditions: not given.
Format: biochemical
Procedure, shortened: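 5 nM gyrase supercoils 130 μg/ml relaxed triplex-sequence plasmid with 0.3 mM ATP in Tris pH 7.5/KCl/MgCl2/spermidine buffer, 0.8% DMSO, ~30 min at ambient temperature, 5-10 compound concentrations. Quenched with 40 nM BODIPY-FL triplex probe at pH 3.5; anisotropy read after 60 min (485/535 nm). IC50 by nonlinear regression against no-compound and 5 uM ciprofloxacin controls.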

Escherichia coli DNA gyrase A/B tetramer, sequence (P0AES4 whole entry, one chain of several): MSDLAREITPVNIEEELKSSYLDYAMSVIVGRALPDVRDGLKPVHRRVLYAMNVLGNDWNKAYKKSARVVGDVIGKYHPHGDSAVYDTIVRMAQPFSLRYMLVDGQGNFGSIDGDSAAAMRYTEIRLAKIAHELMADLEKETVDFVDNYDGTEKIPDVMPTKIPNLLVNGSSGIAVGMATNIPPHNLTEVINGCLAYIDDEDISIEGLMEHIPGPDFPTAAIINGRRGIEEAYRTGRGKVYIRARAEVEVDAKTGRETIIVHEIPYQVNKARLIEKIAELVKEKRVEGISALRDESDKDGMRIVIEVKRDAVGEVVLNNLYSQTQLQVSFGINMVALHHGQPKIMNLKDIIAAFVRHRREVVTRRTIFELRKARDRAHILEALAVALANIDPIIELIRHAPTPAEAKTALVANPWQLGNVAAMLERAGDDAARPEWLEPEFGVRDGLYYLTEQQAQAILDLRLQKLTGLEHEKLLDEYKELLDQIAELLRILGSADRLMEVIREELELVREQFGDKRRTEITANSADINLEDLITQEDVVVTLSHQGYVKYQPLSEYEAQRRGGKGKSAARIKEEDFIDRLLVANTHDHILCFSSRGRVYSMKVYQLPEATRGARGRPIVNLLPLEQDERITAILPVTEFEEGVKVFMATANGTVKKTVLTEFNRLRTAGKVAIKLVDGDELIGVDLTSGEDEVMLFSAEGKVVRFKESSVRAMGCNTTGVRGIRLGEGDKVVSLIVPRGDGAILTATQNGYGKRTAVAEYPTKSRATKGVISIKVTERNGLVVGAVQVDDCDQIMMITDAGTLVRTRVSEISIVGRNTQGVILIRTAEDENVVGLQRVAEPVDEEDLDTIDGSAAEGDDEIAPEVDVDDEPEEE

Compound | pIC50
C[C@@H]1CN2c3c(cc(C(=O)NC4CCOC4)c(F)c3F)CC3(C(=O)NC(=O)NC3=O)[C@H]2[C@H](C)O1 (relative stereo) [Example 64, (2R,4S,4aS)-rel-9,10-Difluoro-2,4-dimethyl-2′,4′,6′-trioxo-N-(tetrahydrofuran-3-yl)-1,1′,2,3′,4,4′,4a,6′-octahydro-2′H,6H-spiro[1,4-oxazino[4,3-a]quinoline-5,5′-pyrimidine]-8-carboxamide] | 5.30
C[C@@H]1CN2c3c(cc(C(=O)NC4CCCOC4)c(F)c3F)CC3(C(=O)NC(=O)NC3=O)[C@H]2[C@H](C)O1 (relative stereo) [Example 65, (2R,4S,4aS)-rel-9,10-Difluoro-2,4-dimethyl-2′,4′,6′-trioxo-N-(tetrahydro-2H-pyran-3-yl)-1,1′,2,3′,4,4′,4a,6′-octahydro-2′H,6H-spiro[1,4-oxazino[4,3-a]quinoline-5,5′-pyrimidine]-8-carboxamide] | < 5.00
C[C@@H]1CN2c3c(cc(C(=O)NC4CCOCC4)c(F)c3F)CC3(C(=O)NC(=O)NC3=O)[C@H]2[C@H](C)O1 (relative stereo) [Example 66, (2R,4S,4aS)-rel-9,10-Difluoro-2,4-dimethyl-2′,4′,6′-trioxo-N-(tetrahydro-2H-pyran-4-yl)-1,1′,2,3′,4,4′,4a,6′-octahydro-2′H,6H-spiro[1,4-oxazino[4,3-a]quinoline-5,5′-pyrimidine]-8-carboxamide] | 5.23
C[C@@H]1CN2c3c(cc(C(=O)NC4CCN(C(=O)OC(C)(C)C)CC4)c(F)c3F)CC3(C(=O)NC(=O)NC3=O)[C@H]2[C@H](C)O1 (relative stereo) [Example 67, tert-Butyl 4-({[(2R,4S,4aS)-rel-9,10-difluoro-2,4-dimethyl-2′,4′,6′-trioxo-1,1′,2,3′,4,4′,4a,6′-octahydro-2′H,6H-spiro[1,4-oxazino[4,3-a]quinoline-5,5′-pyrimidin]-8-yl]carbonyl}amino)piperidine-1-carboxylate] | 4.92
C[C@@H]1CN2c3c(cc(C(=O)NC4CCN(c5ccccn5)CC4)c(F)c3F)CC3(C(=O)NC(=O)NC3=O)[C@H]2[C@H](C)O1 (relative stereo) [Example 68, (2R,4S,4aS)-rel-9,10-Difluoro-2,4-dimethyl-2′,4′,6′-trioxo-N-[1-(pyridin-2-yl)piperidin-4-yl]-1,1′,2,3′,4,4′,4a,6′-octahydro-2′H,6H-spiro[1,4-oxazino[4,3-a]quinoline-5,5′-pyrimidine]-8-carboxamide] | 5.38
C[C@@H]1CN2c3c(cc(C(=O)NC4CCCN(C)C4)c(F)c3F)CC3(C(=O)NC(=O)NC3=O)[C@H]2[C@H](C)O1 (relative stereo) [Example 69, (2R,4S,4aS)-rel-9,10-Difluoro-2,4-dimethyl-N-(1-methylpiperidin-3-yl)-2′,4′,6′-trioxo-1,1′,2,3′,4,4′,4a,6′-octahydro-2′H,6H-spiro[1,4-oxazino[4,3-a]quinoline-5,5′-pyrimidine]-8-carboxamide] | 5.06
C[C@@H]1CN2c3c(cc(C(=O)NC4CCNC4)c(F)c3F)CC3(C(=O)NC(=O)NC3=O)[C@H]2[C@H](C)O1 (relative stereo) [Example 70, (2R,4S,4aS)-rel-9,10-Difluoro-2,4-dimethyl-2′,4′,6′-trioxo-N-(pyrrolidin-3-yl)-1,1′,2,3′,4,4′,4a,6′-octahydro-2′H,6H-spiro[1,4-oxazino[4,3-a]quinoline-5,5′-pyrimidine]-8-carboxamide] | 5.54
C[C@@H]1CN2c3c(cc(C(=O)NC4CCNCC4)c(F)c3F)CC3(C(=O)NC(=O)NC3=O)[C@H]2[C@H](C)O1 (relative stereo) [Example 71, (2R,4S,4aS)-rel-9,10-Difluoro-2,4-dimethyl-2′,4′,6′-trioxo-N-(piperidin-4-yl)-1,1′,2,3′,4,4′,4a,6′-octahydro-2′H,6H-spiro[1,4-oxazino[4,3-a]quinoline-5 ,5′-pyrimidine]-8-carboxamide] | 5.22
CCNC(=O)Nc1ccc2c(c1)CC1(C(=O)NC(=O)NC1=O)[C@H]1[C@H](C)O[C@H](C)CN21 (relative stereo) [Example 72, 1-[(2R,4S,4aS)-rel-2,4-Dimethyl-2′,4′,6′-trioxo-1,1′,2,3′,4,4′,4a,6′-octahydro-2′H,6H-spiro[1,4-oxazino[4,3-a]quinoline-5,5′-pyrimidin]-8-yl]-3-ethylurea] | 4.98
C[C@@H]1CN2c3ccc(NC(=O)Nc4ccccc4)cc3CC3(C(=O)NC(=O)NC3=O)[C@H]2[C@H](C)O1 (relative stereo) [Example 73, 1-[(2R,4S,4aS)-rel-2,4-Dimethyl-2′,4′,6′-trioxo-1,1′,2,3′,4,4′,4a,6′-octahydro-2′H,6H-spiro[1,4-oxazino[4,3-a]quinoline-5,5′-pyrimidin]-8-yl]-3-phenylurea] | 5.30
C[C@@H]1CN2c3ccc(NC(=O)N4CCCCC4)cc3CC3(C(=O)NC(=O)NC3=O)[C@H]2[C@H](C)O1 (relative stereo) [Example 74, N-[(2R,4S,4aS)-rel-2,4-Dimethyl-2′,4′,6′-trioxo-1,1′,2,3′,4,4′,4a,6′-octahydro-2′H,6H-spiro[1,4-oxazino[4,3-a]quinoline-5,5′-pyrimidin]-8-yl]piperidine-1-carboxamide] | 5.45
C[C@@H]1CN2c3ccc(NS(=O)(=O)N4CCOCC4)cc3CC3(C(=O)NC(=O)NC3=O)[C@H]2[C@H](C)O1 (relative stereo) [Example 75, N-[(2R,4S ,4aS)-rel-2,4-Dimethyl-2′,4′,6′-trioxo-1,1′,2,3′,4,4′,4a,6′-octahydro-2′H,6H-spiro[1,4-oxazino[4,3-a]quinoline-5,5′-pyrimidin]-8-yl]morpholine-4-sulfonamide] | 6.18
C[C@@H]1CN2c3ccc(NC(=O)N4CCNC4=O)cc3CC3(C(=O)NC(=O)NC3=O)[C@H]2[C@H](C)O1 (relative stereo) [Example 76, N-[(2R,4S,4aS)-rel-2,4-Dimethyl-2′,4′,6′-trioxo-1,1′,2,3′,4,4′,4a,6′-octahydro-2′H,6H-spiro[1,4-oxazino[4,3-a]quinoline-5,5′-pyrimidin]-8-yl]-2-oxoimidazolidine-1-carboxamide] | 4.78
C[C@@H]1CN2c3ccc(NC(=O)N(C)C)cc3CC3(C(=O)NC(=O)NC3=O)[C@H]2[C@H](C)O1 (relative stereo) [Example 77, 3-[(2R,4S,4aS)-rel-2,4-Dimethyl-2′,4′,6′-trioxo-1,1′,2,3′,4,4′,4a,6′-octahydro-2′H,6H-spiro[1,4-oxazino[4,3-a]quinoline-5,5′-pyrimidin]-8-yl]-1,1-dimethylurea] | 4.66
CNC(=O)Nc1ccc2c(c1)CC1(C(=O)NC(=O)NC1=O)[C@H]1[C@H](C)O[C@H](C)CN21 (relative stereo) [Example 78, 1-[(2R,4S,4aS)-rel-2,4-Dimethyl-2′,4′,6′-trioxo-1,1′,2,3′,4,4′,4a,6′-octahydro-2′H,6H-spiro[1,4-oxazino[4,3-a]quinoline-5,5′-pyrimidin]-8-yl]-3-methylurea] | 5.06
C[C@@H]1CN2c3c(cc(C#Cc4cnccn4)c(F)c3F)CC3(C(=O)NC(=O)NC3=O)[C@H]2[C@H](C)O1 [Example 79, (2R,4S,4aS)-9,10-Difluoro-2,4-dimethyl-8-(pyrazin-2-ylethynyl)-2,4,4a,6-tetrahydro-1H,1′H-spiro[[1,4]oxazino[4,3-a]quinoline-5,5′-pyrimidine]-2′,4′,6′(3′H)-trione] | 6.40

Same assay, conditions: 5 nM enzyme, 0.3 mM ATP, relaxed plasmid, fluorescence anisotropy readout; read-out: E. coli DNA gyrase supercoiling IC50

Compound | pIC50
(2R,4S,4aS)-rel-9,10-Difluoro-2,4-dimethyl-8-[(E)-(morpholin-4-ylimino)methyl]-1,2,4,4a-tetrahydro-2′H,6H-spiro[1,4-oxazino[4,3-a]quinoline-5,5′-pyrimidine]-2′,4′,6(1′H,3′H)-trione [Example 22] | 5.80
(2R,4S,4aS)-rel-10-Fluoro-2,4-dimethyl-8-[(1-methyl-1H-imidazol-2-yl)ethynyl]-1,2,4,4a-tetrahydro-2′H,6H-spiro[1,4-oxazino[4,3-a]quinoline-5,5′-pyrimidine]-2′,4′,6(1′H,3′H)-trione [Example 42] | 6.19
